Results reported in ChEMBL document CHEMBL1147178, “Novel thiol-based TACE inhibitors: rational design, synthesis, and SAR of thiol-containing aryl sulfonamides” (Bioorg Med Chem Lett, 2007).

Tests used:
[1] = target: Disintegrin and metalloproteinase domain-containing protein 17 (Homo sapiens, UniProt P78536); assay: Inhibition of TNF-alpha converting enzyme
[2] = target: Collagenase 3 (Homo sapiens, UniProt P45452); assay: Inhibition of MMP13
[3] = target: 72 kDa type IV collagenase (Homo sapiens, UniProt P08253); assay: Inhibition of MMP2
Chain of 72 kDa type IV collagenase (P08253 whole entry): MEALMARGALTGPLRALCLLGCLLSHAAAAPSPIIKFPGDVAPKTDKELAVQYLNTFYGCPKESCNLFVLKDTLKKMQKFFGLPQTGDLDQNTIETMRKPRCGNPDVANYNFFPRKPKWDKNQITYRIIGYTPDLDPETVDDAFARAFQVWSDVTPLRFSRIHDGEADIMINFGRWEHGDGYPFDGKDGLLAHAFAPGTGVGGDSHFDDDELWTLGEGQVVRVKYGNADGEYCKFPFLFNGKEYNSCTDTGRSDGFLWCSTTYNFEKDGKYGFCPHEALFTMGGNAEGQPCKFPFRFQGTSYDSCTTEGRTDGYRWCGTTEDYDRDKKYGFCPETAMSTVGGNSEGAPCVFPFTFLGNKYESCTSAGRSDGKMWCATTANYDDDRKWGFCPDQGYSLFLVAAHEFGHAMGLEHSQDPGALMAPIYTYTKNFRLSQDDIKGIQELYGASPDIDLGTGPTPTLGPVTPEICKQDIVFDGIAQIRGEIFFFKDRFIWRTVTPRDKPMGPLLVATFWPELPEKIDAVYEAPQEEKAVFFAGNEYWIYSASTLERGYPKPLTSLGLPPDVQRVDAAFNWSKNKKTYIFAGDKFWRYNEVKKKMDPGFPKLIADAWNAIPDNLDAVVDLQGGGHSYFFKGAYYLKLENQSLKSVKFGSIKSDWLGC

[4] = target: T1, Matrilysin (Homo sapiens, UniProt P09237); assay: Inhibition of MMP7
T1 sequence (P09237 whole entry): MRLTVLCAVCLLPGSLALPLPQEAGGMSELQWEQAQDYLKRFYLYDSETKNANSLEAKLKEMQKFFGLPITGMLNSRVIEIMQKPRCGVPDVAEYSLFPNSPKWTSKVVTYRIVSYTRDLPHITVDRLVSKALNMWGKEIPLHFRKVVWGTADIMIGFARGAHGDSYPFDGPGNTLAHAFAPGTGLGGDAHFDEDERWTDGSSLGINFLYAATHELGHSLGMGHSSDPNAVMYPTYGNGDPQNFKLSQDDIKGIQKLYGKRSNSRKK

[5] = target: Matrix metalloproteinase-9 (Homo sapiens, UniProt P14780); assay: Inhibition of MMP9
Chain of Matrix metalloproteinase-9 (P14780 whole entry, looked up): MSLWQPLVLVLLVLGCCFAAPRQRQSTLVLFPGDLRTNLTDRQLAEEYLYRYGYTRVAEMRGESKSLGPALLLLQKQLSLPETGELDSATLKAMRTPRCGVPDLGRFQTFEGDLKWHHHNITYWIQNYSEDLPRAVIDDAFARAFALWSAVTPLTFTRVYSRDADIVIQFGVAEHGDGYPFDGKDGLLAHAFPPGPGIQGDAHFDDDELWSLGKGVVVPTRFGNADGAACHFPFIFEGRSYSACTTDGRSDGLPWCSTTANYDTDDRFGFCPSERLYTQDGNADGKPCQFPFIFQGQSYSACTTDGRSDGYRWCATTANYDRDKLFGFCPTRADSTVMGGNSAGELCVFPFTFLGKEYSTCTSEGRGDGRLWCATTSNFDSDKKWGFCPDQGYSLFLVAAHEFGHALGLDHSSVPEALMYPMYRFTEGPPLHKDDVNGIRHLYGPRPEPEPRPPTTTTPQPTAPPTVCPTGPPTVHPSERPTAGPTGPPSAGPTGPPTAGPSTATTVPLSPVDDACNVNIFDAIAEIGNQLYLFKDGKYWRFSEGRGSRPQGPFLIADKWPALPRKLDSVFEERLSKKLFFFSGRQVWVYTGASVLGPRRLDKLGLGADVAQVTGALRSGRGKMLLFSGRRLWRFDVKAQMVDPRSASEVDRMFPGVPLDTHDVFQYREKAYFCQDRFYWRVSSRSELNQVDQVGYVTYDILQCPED

[6] = target: Neutrophil collagenase (Homo sapiens, UniProt P22894); assay: Inhibition of MMP8
Chain of Neutrophil collagenase (P22894 whole entry): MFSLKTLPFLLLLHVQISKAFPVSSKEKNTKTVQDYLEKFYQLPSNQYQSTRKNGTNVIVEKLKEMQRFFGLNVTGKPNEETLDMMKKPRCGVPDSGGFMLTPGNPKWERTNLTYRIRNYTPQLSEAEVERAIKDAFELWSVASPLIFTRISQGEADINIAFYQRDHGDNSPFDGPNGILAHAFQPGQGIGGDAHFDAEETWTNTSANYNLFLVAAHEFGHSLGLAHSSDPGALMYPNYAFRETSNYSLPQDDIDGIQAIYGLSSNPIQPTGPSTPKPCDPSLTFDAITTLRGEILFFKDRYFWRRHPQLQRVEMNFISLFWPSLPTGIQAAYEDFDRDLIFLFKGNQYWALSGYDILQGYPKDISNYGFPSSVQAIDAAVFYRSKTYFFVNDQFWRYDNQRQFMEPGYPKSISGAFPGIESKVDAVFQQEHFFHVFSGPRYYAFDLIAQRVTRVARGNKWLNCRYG

Chain of Disintegrin and metalloproteinase domain-containing protein 17 (P78536 whole entry, the tested form may be a part): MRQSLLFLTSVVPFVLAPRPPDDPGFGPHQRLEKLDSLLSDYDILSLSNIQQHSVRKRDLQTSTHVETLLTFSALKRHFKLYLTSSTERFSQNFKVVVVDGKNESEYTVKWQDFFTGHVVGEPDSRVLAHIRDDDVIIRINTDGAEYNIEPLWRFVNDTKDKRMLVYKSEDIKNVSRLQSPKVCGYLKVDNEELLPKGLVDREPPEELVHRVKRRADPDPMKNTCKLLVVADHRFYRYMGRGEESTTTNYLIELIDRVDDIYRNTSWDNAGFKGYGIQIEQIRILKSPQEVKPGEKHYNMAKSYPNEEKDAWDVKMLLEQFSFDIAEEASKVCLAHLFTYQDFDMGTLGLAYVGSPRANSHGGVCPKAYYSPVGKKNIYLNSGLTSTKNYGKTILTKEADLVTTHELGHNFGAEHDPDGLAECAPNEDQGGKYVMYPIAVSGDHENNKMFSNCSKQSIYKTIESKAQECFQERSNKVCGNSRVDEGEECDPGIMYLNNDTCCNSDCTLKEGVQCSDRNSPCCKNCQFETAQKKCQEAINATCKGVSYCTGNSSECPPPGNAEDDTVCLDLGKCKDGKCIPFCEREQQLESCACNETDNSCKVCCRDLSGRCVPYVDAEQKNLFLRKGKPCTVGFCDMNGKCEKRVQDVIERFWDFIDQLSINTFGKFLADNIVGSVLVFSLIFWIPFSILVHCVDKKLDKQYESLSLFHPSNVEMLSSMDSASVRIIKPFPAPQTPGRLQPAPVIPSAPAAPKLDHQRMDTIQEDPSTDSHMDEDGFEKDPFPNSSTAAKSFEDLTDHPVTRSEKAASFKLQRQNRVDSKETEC

Ki [1] [nM]	Ki [2] [nM]	Ki [3] [nM]	Ki [4] [nM]	Ki [5] [nM]	Ki [6] [nM]	Compound
3400						CN1CCN(CC#CCOc2ccc(S(=O)(=O)N3CC[C@@H](S)C3)cc2)CC1
55	700	> 3000	> 3000			CC#CCOc1ccc(S(=O)(=O)N2CCCC(S)C2)cc1 (racemic)
27						CC#CCOc1ccc(S(=O)(=O)N(C)C[C@H](C)S)cc1
10	17	27	3400			CC#CCOc1ccc(S(=O)(=O)N(C)CC(=O)NO)cc1
52	2000	5700	33000	200	1300	CC#CCOc1ccc(S(=O)(=O)N(C)CCS)cc1
	1200	5000	> 6000			CC#CCOc1ccc(S(=O)(=O)N2CC[C@@H](S)C2)cc1
13						CC#CCOc1ccc(S(=O)(=O)N2CC(S)C2)cc1

Compound	Ki [1] [nM]	Ki [2] [nM]	Ki [3] [nM]	Ki [4] [nM]	Ki [5] [nM]	Ki [6] [nM]
O=S(=O)(c1ccc(OCC#CCN2CCCCC2)cc1)N1CC[C@@H](S)C1	530					
CC#CCNc1ccc(S(=O)(=O)N2CC[C@@H](S)C2)cc1	5					
CC#CCNc1ccc(S(=O)(=O)N2CC(S)C2)cc1	11					
